Results on five molecules are retold here after article PMC11962085, “Molecular mechanisms of urate transport by the native human URAT1 and its inhibition by anti-gout drugs” (Cell Discovery, 2025).

Where a chain is given by its changes, count along the chain named.

Assay [1] concerns the target T1, hURAT1 F360A (Homo sapiens, UniProt Q96S37, F360A).
T1 construct: Flag; expressed in transfected cells; host or cells: HEK293
T1 sequence (Q96S37 1-553 F360A): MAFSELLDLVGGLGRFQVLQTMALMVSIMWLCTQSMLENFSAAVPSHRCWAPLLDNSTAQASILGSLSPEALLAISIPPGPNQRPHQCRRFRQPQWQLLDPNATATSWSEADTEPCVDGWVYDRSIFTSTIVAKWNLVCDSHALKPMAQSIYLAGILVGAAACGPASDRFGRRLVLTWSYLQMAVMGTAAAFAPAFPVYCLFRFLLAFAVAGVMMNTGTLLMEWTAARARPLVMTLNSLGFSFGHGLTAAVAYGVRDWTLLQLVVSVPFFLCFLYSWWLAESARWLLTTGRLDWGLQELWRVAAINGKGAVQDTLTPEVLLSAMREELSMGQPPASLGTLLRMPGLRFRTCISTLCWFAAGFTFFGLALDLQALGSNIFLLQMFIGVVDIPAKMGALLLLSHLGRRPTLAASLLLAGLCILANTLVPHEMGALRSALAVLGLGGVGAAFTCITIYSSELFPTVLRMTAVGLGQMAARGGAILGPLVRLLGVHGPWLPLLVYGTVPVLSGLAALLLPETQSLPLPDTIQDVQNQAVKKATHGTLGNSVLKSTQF
Briefly: 14C-urate uptake inhibition assay, hURAT1 F360A mutant in HEK293 cells. It is filed as cell-based. The conditions noted are these: for effect of alanine substitution at F360 on inhibition: F360A vs wild-type URAT1, in words; for IC50: F360A hURAT1, HEK293 cells, 14C-urate uptake, n=3-8, read-out: pIC50 (Mean ± SEM) (converted). As to the method:
(§1) The cells were seeded at a density of 30,000 cells per well in Isoplate-96 plates (Perkin Elmer).

In assay [2] the target is T2, hURAT1 F449A (Homo sapiens, UniProt Q96S37, F449A).
T2 construct: Flag; expressed in transfected cells; host or cells: HEK293
T2 sequence (Q96S37 1-553 F449A): T1 sequence (Q96S37 1-553 F360A) with A360F, F449A
Briefly: 14C-urate uptake inhibition assay, hURAT1 F449A mutant in HEK293 cells. It is filed as cell-based. The procedure: as §1

In assay [3] the target is T3, hURAT1 R477K (Homo sapiens, UniProt Q96S37, R477K).
T3 construct: Flag; expressed in transfected cells; host or cells: HEK293
T3 sequence (Q96S37 1-553 R477K): T1 sequence (Q96S37 1-553 F360A) with A360F, R477K
Briefly: 14C-urate uptake inhibition assay, hURAT1 R477K mutant in HEK293 cells. The format is cell-based. The conditions noted are these: for IC50: R477K hURAT1, HEK293 cells, 14C-urate uptake, n=3-8, read-out: pIC50 (Mean ± SEM) (converted). The procedure: as §1

The target of assay [4] is T4, hURAT1 F364Y-F365Y (Homo sapiens, UniProt Q96S37, F364Y/F365Y).
T4 construct: Flag; expressed in transfected cells; host or cells: HEK293
T4 sequence (Q96S37 1-553 F364Y/F365Y): T1 sequence (Q96S37 1-553 F360A) with A360F, F364Y, F365Y
Briefly: 14C-urate uptake inhibition assay, hURAT1 F364Y-F365Y mutant in HEK293 cells. The format is cell-based. The following applies: for IC50: F364Y-F365Y hURAT1, HEK293 cells, 14C-urate uptake, n=3-8, N.A., not active, read-out: pIC50 (Mean ± SEM) (converted). The procedure:
as §1

Details of assay [5]: method as in PMID 26378978, PMID 30415602. The conditions noted are these: high-risk patients; cited from earlier work.

Regarding `CCc1oc2ccccc2c1C(=O)c1cc(Br)c(O)c(Br)c1` [benzbromarone], the “effect of alanine substitution at F360 on inhibition” value in assay [1] is recorded as “significantly diminish the inhibitory effectiveness”. In assay [2] (F449A vs wild-type URAT1, in words), the “effect of alanine substitution at F449 on inhibition” value is reported as “significantly diminish the inhibitory effectiveness”. The “effect of mutation of R477 to lysine on potency” value in assay [3] (R477K vs wild-type URAT1, in words) was “slightly reduced the potency”.

As to `O=C(c1cc(Cl)c(O)c(Cl)c1)N1CS(=O)(=O)c2ccccc21` [dotinurad], the IC50 in assay [4] is 123 nM; in assay [1] it was 3160 nM; in assay [3], 22.9 nM. Moreover, in assay [1], the “effect of alanine substitution at F360 on inhibition” value is “markedly reduces the effectiveness”.

For the molecule `OC[C@H]1O[C@@H](c2ccc(Cl)c(Cc3ccc(O[C@H]4CCOC4)cc3)c2)[C@H](O)[C@@H](O)[C@@H]1O` [empagliflozin], in assay [5], the “relative risk reduction in cardiovascular death” value is reported as 38%.

With `O=C(O)CSc1nnc(Br)n1-c1ccc(C2CC2)c2ccccc12` [lesinurad], the “effect of changing F364 and F365 to tyrosine on inhibition” value in assay [4] (F364Y-F365Y vs wild-type URAT1, in words) is recorded as “nearly abolishes the inhibitory effects”.

Consider `CC(C)(Sc1ccncc1-c1ccc(C#N)c2ccccc12)C(=O)O` [verinurad], for which the IC50 in assay [4] is 245000 nM; in assay [1], 56.2 nM; in assay [2] (F449A hURAT1, HEK293 cells, 14C-urate uptake, n=3-8, read-out: pIC50 (Mean ± SEM) (converted)), 126 nM; in assay [3], 513 nM.
